# Where a name gives a salt, the structure may show the parent alone.
# Target: α7-subtype of nicotinic receptors (Rattus norvegicus, UniProt Q05941)
# Assay: biochemical
# Type: binding
# Sequence of α7-subtype of nicotinic receptors (Q05941 23-502): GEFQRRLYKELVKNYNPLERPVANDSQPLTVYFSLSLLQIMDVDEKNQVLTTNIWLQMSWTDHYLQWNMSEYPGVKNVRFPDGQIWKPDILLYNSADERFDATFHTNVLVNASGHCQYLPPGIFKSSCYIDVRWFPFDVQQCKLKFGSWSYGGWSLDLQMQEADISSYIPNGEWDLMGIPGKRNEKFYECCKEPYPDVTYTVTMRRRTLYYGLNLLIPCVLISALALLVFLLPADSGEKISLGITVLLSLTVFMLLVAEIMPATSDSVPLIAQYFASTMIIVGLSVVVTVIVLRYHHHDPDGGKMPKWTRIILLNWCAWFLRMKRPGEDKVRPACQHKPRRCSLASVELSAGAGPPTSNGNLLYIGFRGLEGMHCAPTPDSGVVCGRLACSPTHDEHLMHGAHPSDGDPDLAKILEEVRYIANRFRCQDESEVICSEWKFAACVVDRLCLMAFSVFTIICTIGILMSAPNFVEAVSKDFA
structure (smiles),measurement,value
"O=C(Nc1cnc(N2CCN3CCC2CC3)nc1)c1ccccc1F [Compound 1, N-[2-(1,4-Diaza-bicyclo[3.2.2]non-4-yl)-pyrimidin-5-yl]-2-fluoro-benzamide hydrochloric acid salt]",IC50,< 100 nM
